Data as given in paper PMC11110133, “Thiophene-fused γ-lactams inhibit the SARS-CoV-2 main protease via reversible covalent acylation” (Chemical Science, 2024).
Read-outs that look alike come from different tables or passages of the source.

How the values were obtained:
[1] = molecular target: T1, isolated recombinant SARS-CoV-2 M^pro (Severe acute respiratory syndrome coronavirus 2, UniProt P0DTD1); assay: SPE-MS SARS-CoV-2 Mpro inhibition assay; assay type: biochemical; settings: for IC50: SPE-MS, SARS-CoV-2 M^pro 0.05 μM, substrate peptide 2.0 μM, mean ± SD of two independent runs (n = 2); for fold increase in M^pro inhibition potency relative to γ-lactam 7: relative to 7; for fold more efficient M^pro inhibition than γ-lactam 5: relative to reported γ-lactam 5; for fold more efficient M^pro inhibition than pyrazolidinone 6: relative to reported pyrazolidinone 6
[2] = molecular target: T1, isolated recombinant SARS-CoV-2 M^pro; assay type: binding; settings: for covalent reaction with M^pro (protein-observed MS): M^pro 3.0 μM, γ-lactam 15 μM, 20 mM HEPES pH 7.5, 4 h incubation
M^pro [3] = settings: mass spectrometric analyses; cited from earlier work
[4] = molecular target: T1, isolated recombinant SARS-CoV-2 M^pro; set-up: method as in PMID 35549342; settings: cited from earlier work; for IC50: reported M^pro inhibition
M^pro [5] = tested on: M^pro; set-up: method as in PMID 37866713; settings: reported M^pro inhibition; cited from earlier work

CC(C)C1C(=O)N(S(C)(=O)=O)c2sccc21 (racemic) [16c]
IC50 ([1]; read-out: IC50): ~16 µM
fold less efficient M^pro inhibition than 16b ([1]; relative to propyl-substituted 16b): ~5 fold

CS(=O)(=O)N1C(=O)C(Cc2ccccc2)c2ccsc21 (racemic) [16d]
IC50 ([1]; read-out: IC50): ~4 µM

CS(=O)(=O)N1C(=O)C(CCC#N)c2ccsc21 (racemic) [16e]
IC50 ([1]; read-out: IC50): ~2.7 µM

C=CCC1C(=O)N(S(C)(=O)=O)c2sccc21 (racemic) [16f]
IC50 ([1]; read-out: IC50): ~3.5 µM

CS(=O)(=O)N1C(=O)C(CCC#N)c2ccsc21 (racemic) [C00007]
IC50 ([1]; read-out: IC50): 2.7 ± 0.1 µM

C=CCC1C(=O)N(S(C)(=O)=O)c2sccc21 (racemic) [C00009]
IC50 ([1]; read-out: IC50): 3.5 ± 0.2 µM

CC(C)C1C(=O)N(S(C)(=O)=O)c2sccc21 (racemic) [C00012]
IC50 ([1]; read-out: IC50): 16 ± 2 µM

CS(=O)(=O)N1C(=O)C(Cc2ccccc2)c2ccsc21 (racemic) [C00014]
IC50 ([1]; read-out: IC50): 4 ± 0.4 µM

CC1C(=O)N(S(C)(=O)=O)c2sccc21 (stereo not drawn) [16a]
complex observed after adding excess 24 to the M^pro:16a mixture (reversibility) ([2]; 16a with M^pro 2 h at 0 °C (1 : 5), then 24 for 3 h at 0 °C, SPE-MS): not detected
covalent reaction with the covalent M^pro:nirmatrelvir alkyne (24) complex (Cys145 blocked) ([2]; M^pro 3.0 μM pre-reacted with 24, then 16a 15 μM, 2 h): does not covalently react
covalent reaction with M^pro (protein-observed MS) [2]: react covalently
fold increase in M^pro inhibition potency relative to γ-lactam 7 [1]: ~2 fold

CCCC1C(=O)N(S(C)(=O)=O)c2sccc21 (stereo not drawn) [16b]
covalent reaction with M^pro (protein-observed MS) [2]: react covalently

CC1(C)C(=O)N(S(C)(=O)=O)c2sccc21 [17a]
IC50 [1]: did not inhibit

C=CCC1(CC=C)C(=O)N(S(C)(=O)=O)c2sccc21 [17b]
IC50 [1]: did not inhibit

CC(=O)N1C(=O)Cc2ccsc21 [23a]
IC50 [1]: ablated M^pro inhibition

O=C1Cc2ccsc2N1S(=O)(=O)Cc1ccccc1 [23b]
covalent reaction with M^pro (protein-observed MS) [2]: react covalently
fold increase in M^pro inhibition potency relative to γ-lactam 7 [1]: ~2 fold

O=C1Cc2ccsc2N1S(=O)(=O)c1ccccc1 [23c]
fold increase in M^pro inhibition potency relative to γ-lactam 7 [1]: ~2 fold

COc1ccc(S(=O)(=O)N2C(=O)Cc3ccsc32)cc1 [23d]
covalent reaction with M^pro (protein-observed MS) [2]: react covalently

O=C1Cc2ccsc2N1S(=O)(=O)c1ccc(C(F)(F)F)cc1 [23f]
IC50 ([1]; read-out: IC50): ~1.3 µM
fold increase in M^pro inhibition potency relative to γ-lactam 7 [1]: ~6 fold
fold more potent than γ-lactam 23c ([1]; relative to 23c): ~3 fold
fold more efficient M^pro inhibition than β-lactam 3 ([1]; relative to reported β-lactam 3): ~6 fold
fold more efficient M^pro inhibition than γ-lactam 5 [1]: ~20 fold

CS(=O)(=O)N1C(=O)Cc2ccsc21 [C00001]
IC50 ([1]; read-out: IC50): 8.5 ± 1.4 µM

CS(=O)(=O)N1C(=O)Cc2sccc21 [C00002]
IC50 ([1]; read-out: IC50): 8.4 ± 0.5 µM

CS(=O)(=O)N1C(=O)Cc2cscc21 [C00003]
IC50 ([1]; read-out: IC50): > 100 µM

CS(=O)(=O)n1c(=O)n(S(C)(=O)=O)c2cscc21 [C00004]
IC50 ([1]; read-out: IC50): > 100 µM

CS(=O)(=O)N1C(=O)Cc2ccccc21 [C00005]
IC50 ([1]; read-out: IC50): > 100 µM

CC1C(=O)N(S(C)(=O)=O)c2sccc21 (stereo not drawn) [C00006]
IC50 ([1]; read-out: IC50): 3.9 ± 0.1 µM

CC1(C)C(=O)N(S(C)(=O)=O)c2sccc21 [C00008]
IC50 ([1]; read-out: IC50): > 100 µM

CCCC1C(=O)N(S(C)(=O)=O)c2sccc21 (stereo not drawn) [C00010]
IC50 ([1]; read-out: IC50): 3.2 ± 0.8 µM

C=CCC1(CC=C)C(=O)N(S(C)(=O)=O)c2sccc21 [C00011]
IC50 ([1]; read-out: IC50): > 100 µM

CS(=O)(=O)N1C(=O)C2(CC=CC2)c2ccsc21 [C00013]
IC50 ([1]; read-out: IC50): 61 ± 4 µM

CS(=O)(=O)N1C(=O)C2(CC=CC2)c2sccc21 [C00015]
IC50 ([1]; read-out: IC50): > 100 µM

CS(=O)(=O)N1C(=O)Cc2ccsc21 [C00017]
IC50 ([1]; read-out: IC50): 8.5 ± 1.4 µM

CC(=O)N1C(=O)Cc2ccsc21 [C00018]
IC50 ([1]; read-out: IC50): > 100 µM

O=C1Cc2ccsc2N1S(=O)(=O)Cc1ccccc1 [C00019]
IC50 ([1]; read-out: IC50): 4.3 ± 0.1 µM

O=C1Cc2ccsc2N1S(=O)(=O)c1ccccc1 [C00020]
IC50 ([1]; read-out: IC50): 4.7 ± 1.1 µM

COc1ccc(S(=O)(=O)N2C(=O)Cc3ccsc32)cc1 [C00021]
IC50 ([1]; read-out: IC50): 2.7 ± 0.2 µM

O=C1Cc2ccsc2N1S(=O)(=O)c1ccc([N+](=O)[O-])cc1 [C00022]
IC50 ([1]; read-out: IC50): 4.4 ± 0.7 µM

O=C1Cc2ccsc2N1S(=O)(=O)c1ccc(C(F)(F)F)cc1 [C00023]
IC50 ([1]; read-out: IC50): 1.3 ± 0.1 µM

CC1(C)C(C(=O)OCc2ccccc2)N2C(=O)C(NC(=O)COc3ccccc3)C2S1(=O)=O (stereo not drawn) [compound 3, penicillin V sulfone benzyl ester]
covalent reaction with M^pro (reported) (M^pro [3]): covalent reaction of its β-lactam with the active site Cys145
IC50 [4]: ~6.6 µM

CC1(C)C(C(=O)OCc2ccccc2)N2C(=O)C(NC(=O)COc3ccccc3)CC2S1(=O)=O (stereo not drawn) [compound 5]
covalent reaction with M^pro (reported) (M^pro [3]): did not react to form a stable acyl–enzyme complex
fold less efficient M^pro inhibition than β-lactam 3 ([4]; relative to β-lactam 3): ~4 fold
IC50 [4]: ~26.1 µM

O=C(O)C1=C(C(=O)N(Cc2ccccc2)Cc2ccccc2)CN2C[C@H](NC(=O)[C@H](Cc3ccccc3)NC(=O)c3cc4ccccc4[nH]3)C(=O)N12 [compound 6]
IC50 (M^pro [5]): ~45 µM

CS(=O)(=O)N1C(=O)Cc2ccsc21 [compound 7]
covalent reaction with M^pro (protein-observed MS) [2]: react covalently
IC50 ([1]; read-out: IC50): ~8.5 µM
fold more efficient M^pro inhibition than pyrazolidinone 6 [1]: ~5 fold
fold more efficient M^pro inhibition than γ-lactam 5 [1]: ~3 fold

CS(=O)(=O)N1C(=O)Cc2sccc21 [compound 8]
covalent reaction with M^pro (protein-observed MS) [2]: react covalently
IC50 ([1]; read-out: IC50): ~8.4 µM
fold more efficient M^pro inhibition than pyrazolidinone 6 [1]: ~5 fold
fold more efficient M^pro inhibition than γ-lactam 5 [1]: ~3 fold

CS(=O)(=O)N1C(=O)Cc2cscc21 [compound 9]
IC50 [1]: did not inhibit

CS(=O)(=O)n1c(=O)n(S(C)(=O)=O)c2cscc21 [compound 10]
IC50 [1]: did not result in inhibition

CS(=O)(=O)N1C(=O)Cc2ccccc21 [compound 11]
IC50 [1]: did not inhibit

CS(=O)(=O)N1C(=O)C2(CC=CC2)c2ccsc21 [compound 18]
IC50 [1]: did not efficiently inhibit

CS(=O)(=O)N1C(=O)C2(CC=CC2)c2sccc21 [compound 19]
IC50 [1]: did not efficiently inhibit
